Measurements: patent EP1980561B1, “Substituted 1h-pyrazolo[3,4-b] pyridine derivatives active as kinase inhibitors” (NERVIANO MEDICAL SCIENCES S.R.L., priority 2007, dated 2008)
Where two headings read alike, the source gives them in different places.

Tests used:
[1] = biological target: AKT3 (Homo sapiens, UniProt Q9Y243); test: Biochemical assay for inhibitors of AKT3 kinase activity (33P trans-phosphorylation, Dowex resin)
Experimental: The N-terminal GST fusion proteins used for the assays were prepared according to the methods described in Kumar, C. C. Biochem. Biophys. ACTA 2001, 1526, 257-268, and in Alessi, D. R.. Biochem. J. 1998 331, 299-308. The in vitro kinase inhibition assay was conducted in the same way as described for AKT1. The kinase assay was run with a final enzyme concentration of 1 nM, in the presence of 180 microM ATP, 0.88 nM ^33P-γ-ATP and 28.5 microM substrate, a carboxy-terminally biotinylated peptide of the following sequence: ARKRERTYSFGHHA-biotin. The peptide was obtained in batches of >95% peptide purity from PRIMM labs Inc. (Boston MA, USA).

[2] = biological target: T1, AKT2 (Homo sapiens, UniProt P31751); test: Biochemical assay for inhibitors of AKT2 kinase activity (33P trans-phosphorylation, Dowex resin); conditions: 10 nM enzyme, 396 microM ATP, 8.5 microM peptide substrate
T1 construct: GST (N); made in house
T1 sequence (P31751 whole entry, species assumed): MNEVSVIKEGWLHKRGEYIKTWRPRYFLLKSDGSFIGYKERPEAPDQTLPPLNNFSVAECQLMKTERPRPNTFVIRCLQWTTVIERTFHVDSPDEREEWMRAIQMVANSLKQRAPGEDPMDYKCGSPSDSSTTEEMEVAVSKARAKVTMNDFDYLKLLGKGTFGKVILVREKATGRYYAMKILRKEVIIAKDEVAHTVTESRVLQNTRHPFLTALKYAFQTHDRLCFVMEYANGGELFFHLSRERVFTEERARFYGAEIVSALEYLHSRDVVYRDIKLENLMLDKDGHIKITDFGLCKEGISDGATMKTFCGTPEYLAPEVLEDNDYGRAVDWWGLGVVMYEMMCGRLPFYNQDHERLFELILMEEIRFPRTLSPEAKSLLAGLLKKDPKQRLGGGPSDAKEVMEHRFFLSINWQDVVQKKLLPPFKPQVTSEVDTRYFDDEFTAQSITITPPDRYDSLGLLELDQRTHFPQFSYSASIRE
Experimental: (§1) The N-terminal GST fusion proteins used for the assays were prepared according to the methods described in Kumar, C. C. Biochem. Biophys. ACTA 2001, 1526, 257-268, and in Alessi, D. R.. Biochem. J. 1998 331, 299-308.
The in vitro kinase inhibition assay was conducted in the same way as described for AKT1. The kinase assay was run with a final enzyme concentration of 10 nM, in the presence of 396 microM ATP, 0.88 nM ^33P-γ-ATP and 8.5 microM substrate, a carboxy-terminally biotinylated peptide of the following sequence:
ARKRERTYSFGHHA-biotin. The peptide was obtained in batches of >95% peptide purity from PRIMM labs Inc. (Boston MA, USA).

[3] = system: S6 ribosomal protein phosphorylation (Ser235/236) in MCF-7 cells; test: Inhibition of AKT induced S6 ribosomal protein phosphorylation in MCF7 (immunofluorescence, ArrayScan); format: cell-based; conditions: Homo sapiens, compound treatment for 4 hour at 37°C, read-out: S6 phosphorylation (Ser235/236) in MCF7-cell IC50
Experimental: MCF-7 cells (ATCC# HTB-22) were seeded in 96-well poly-lysine coated clear- and flat-bottomed black plates (Matrix Technologies Inc., Hudson, NH, USA), in E-MEM medium (MEM+ Earle's BSS + 2 mM glutamine + 0.1 mM non-essential amino acids) containing 10% of FCS at a density of 7000 cells/well, and incubated overnight at 37°C, 5% CO2, 100% relative humidity. After this incubation, cells were treated with increasing compound doses for 4 hour at 37°C. Afterwards, cells were fixed with PBS/3.7% paraformaldehyde for 15 min at room temperature, wash twice with 200 µl/well D-PBS and permeabilize with a D-PBS solution containing 0.1% Triton X-100 (Sigma-Aldrich, St. Louis, MO, USA) and 0.1% powder Milk for 15 minutes (staining solution). […] Fluorescence images in the DAPI and Cy5™ channels were automatically acquired, stored and analysed using a Cellomics ArrayScan™ IV instrument (Cellomics, Pittsburgh, USA); the Cellomics Cytotoxicity Algorithm was used to quantify cytoplasmic fluorescence associated with phospho-S6 (Cy5™ signal parameter: "Mean Lyso Mass-pH") for each cell in 10 fields/well, and eventually expressed as a mean population value. […]

[4] = biological target: T2, AKT1 (Homo sapiens, UniProt P31749); test: FABS-NMR screening (3-FABS, 19F-labelled AKTide-like substrate) on AKT-1; format: biochemical; parameters: The active human Ser-Thr protein kinase AKT-1 Full Length was expressed as GST fusion protein; GST (cleaved yes); made in house; host or cells: insect cells; conditions: 25 nM protein, 30 µM substrate, 1.5 mM ATP; read-out: AKT1 IC50 FABS NMR assay
T2 sequence (P31749 whole entry, the tested form may be a part): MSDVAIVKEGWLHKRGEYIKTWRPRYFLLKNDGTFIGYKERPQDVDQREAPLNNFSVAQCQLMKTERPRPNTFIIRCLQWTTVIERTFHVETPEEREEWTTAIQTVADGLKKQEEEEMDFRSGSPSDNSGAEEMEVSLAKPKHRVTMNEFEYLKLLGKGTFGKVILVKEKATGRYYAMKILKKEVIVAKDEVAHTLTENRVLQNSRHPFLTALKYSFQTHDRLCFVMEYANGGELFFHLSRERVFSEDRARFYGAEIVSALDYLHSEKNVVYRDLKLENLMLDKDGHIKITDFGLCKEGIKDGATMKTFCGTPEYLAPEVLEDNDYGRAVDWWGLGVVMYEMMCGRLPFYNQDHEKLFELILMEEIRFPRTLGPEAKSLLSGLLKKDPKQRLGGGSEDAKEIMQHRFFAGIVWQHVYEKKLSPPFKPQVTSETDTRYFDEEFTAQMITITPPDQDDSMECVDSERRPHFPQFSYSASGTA
Experimental: (§2) The biochemical functional NMR screening on the proteins kinase AKT-1 and PKA was performed using the 3-FABS (3-Fluorine Atoms for Biochemical Screening) technique developed by C. Dalvit and the NMR group in house (C. Dalvit et al 2003 J. Am. Chem. Soc. 125 (47): 14620).
(§3) The method require the use of a ^19F-labelled substrate. The same commercial peptide was used as substrate in both enzymatic reaction: the Tyr just before the phosphorilation site in the AKTide peptide was mutated in a 3-tryfluormethyl-Phe by Bachem.
(§4) The AKTide like peptide sequence is reported below: • H-Ala-Arg-Lys-Arg-Glu-Arg-Ala-Phe(3-CF3)-Ser-Phe-Gly-His-His-Ala-OH
The active human Ser-Thr protein kinase AKT-1 Full Length was expressed as GST fusion protein in insect cells and then the GST was cleaved with PreScission protease.
(§5) Reactions were performed in an end point format in eppendorf of 0.5 ml using the buffer solution 50mM Tris, pH 7.5, 5mM MgCl2, 1mM DTT, 8% D2O and 0.001% Triton-X-100; the final volume was of 560 µl. […] The spectra were recorded using the Varian Inova 600 MHz NMR spectrometer operating at a ^19F Larmor frequency of 564 MHz and using a 5mm probe with the inner coil tuned to ^19F and the outer coil tuned to H. The data were recorded without proton decoupling with a spectral width of 12000 Hz, an acquisition time of 0.8s and a relaxation delay of 2.8s. […]

[5] = biological target: T3, PKAα (Homo sapiens, UniProt P17612); test: FABS-NMR screening (3-FABS, 19F-labelled AKTide-like substrate) on PKA; format: biochemical; conditions: 25 nM protein, 30 µM substrate, 150 µM ATP
T3 construct: polyHis; made in house; host or cells: E. coli
Experimental: as §2, §3, §4
The active cycled AMP-dependent human protein kinase A PKA was expressed as polyHis-tag protein in E.Coli and purified by affinity column.
as §5

[6] = biological target: T2, AKT1; test: Biochemical assay for inhibitors of AKT1 kinase activity (33P trans-phosphorylation, Dowex resin); parameters: GST (N); made in house; conditions: 5 nM enzyme, 132 microM ATP, 30 microM peptide substrate, 60 minutes at room temperature
Experimental: as §1
The inhibitory activity of putative kinase inhibitors and the potency of selected compounds were determined using a trans-phosphorylation assay.
A specific substrate was incubated with the kinase in appropriate buffer conditions in the presence of ATP traced with ^33P-γ-ATP (gamma phosphate-labeled, Redivue™
Code Number AH9968, 1000-3000Ci/mmole, Amersham Biosciences Piscataway, NJ, USA), optimal cofactors and test compound.
At the end of the phosphorylation reaction, more than 98% cold and radioactive ATP were captured by an excess of Dowex ion exchange resin. The resin was allowed to settle to the bottom of reaction wells by gravity. Supernatant, containing substrate peptide, was subsequently withdrawn and transferred into a counting plate, and radioactivity (corresponding to phosphate incorporated into peptide) was evaluated by β-counting.
Kinase buffer was composed of 50 mM TRIS pH 7.5 containing10 mM MgCl2, 1 mM DTT, 3 microM Na3VO4, and 0.2 mg/mL BSA. 3X KB is buffer of the same composition and pH as KB, but with three times the concentration of each component. […]

Sequence of AKT3 (Q9Y243 2-479): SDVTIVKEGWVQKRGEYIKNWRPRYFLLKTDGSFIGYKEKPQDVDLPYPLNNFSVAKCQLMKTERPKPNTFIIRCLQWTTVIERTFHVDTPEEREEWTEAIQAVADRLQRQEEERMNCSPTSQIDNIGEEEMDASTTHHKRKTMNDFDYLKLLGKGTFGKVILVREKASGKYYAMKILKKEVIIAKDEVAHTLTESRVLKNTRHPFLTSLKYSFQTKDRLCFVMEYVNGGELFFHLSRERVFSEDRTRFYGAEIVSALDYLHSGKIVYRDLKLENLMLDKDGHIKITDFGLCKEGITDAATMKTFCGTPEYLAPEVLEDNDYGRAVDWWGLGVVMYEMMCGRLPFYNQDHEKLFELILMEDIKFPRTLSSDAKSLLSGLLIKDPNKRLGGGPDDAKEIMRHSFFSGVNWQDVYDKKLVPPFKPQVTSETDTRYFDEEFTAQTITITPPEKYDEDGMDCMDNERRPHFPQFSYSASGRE

Row | Compound | IC50 ([1]; 1 nM enzyme, 180 microM ATP, 28.5 microM peptide substrate, read-out: AKT3 IC50 Biochemical assay) [nM] | IC50 [2] [nM] | IC50 [3] [µM] | IC50 [4] [nM] | IC50 [5] [nM] | IC50 [6] [nM] | IC50 [1] [nM]
1 | CN1CCN(C[C@@H](NC(=O)/C(=C/c2n[nH]c3ncccc23)c2cn(C)c3ccc(Br)cc23)c2ccccc2)CC1 [Compound 10, (2E)-2-(5-bromo-1-methyl-1H-indol-3-yl)-N-[(1S)-2-(4-methylpiperazin-1-yl)-1-phenylethyl]-3-(1H-pyrazolo[3,4-b]pyridin-3-yl)acrylamide] | 108 | 786 | 16 | 62 | 1900 | 149 | –
2 | NC[C@H](Cc1ccccc1)NC(=O)/C=C/c1n[nH]c2ncccc12 [Compound 1, (E)-N-((S)-2-amino-1benzyl-ethyl)-3-(1H-pyrazolo[3,4-b]pyridin-3-yl)acrylamide tris(trifluoroacetate)] | – | 92 | 1.35 | 62 | 25 | 17 | 19
